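Values below derive from 48-hour exposures of cells grown in 96-well plates, with endpoints linearly interpolated between the two concentrations bracketing the appropriate inhibition level. Here, GI50 denotes the concentration required for 50% inhibition of growth. TGI: total growth inhibition.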
How the values were obtained:
Assay in all cases: inhibition of tumour cell growth, NCI panel, 48 h
[1] = system: ACHN renal
[2] = system: BT-549 breast
[3] = system: CAKI-1 renal
[4] = system: CCRF-CEM leukemia
[5] = system: COLO 205 colon
[6] = system: DU-145 prostate
[7] = system: HCC-2998 colon
[8] = system: HCT-15 colon
[9] = system: HL-60(TB) leukemia
[10] = system: HOP-62 NSCLC
[11] = system: HOP-92 NSCLC
[12] = system: HS 578T breast
[13] = system: HT29 colon
[14] = system: IGROV1 ovarian
[15] = system: K-562 leukemia
[16] = system: KM12 colon
[17] = system: M14 melanoma
[18] = system: MALME-3M melanoma
[19] = system: MCF7 breast
[20] = system: MDA-MB-231 breast
[21] = system: MDA-MB-435
[22] = system: MOLT-4 leukemia
[23] = system: NCI-H226 lung
[24] = system: NCI-H23 lung
[25] = system: NCI-H460 lung
[26] = system: NCI/ADR-RES ovarian
[27] = system: OVCAR-4 ovarian
[28] = system: OVCAR-5 ovarian
[29] = system: PC-3 prostate
[30] = system: RPMI-8226 leukemia
[31] = system: SF-295 CNS
[32] = system: SF-539 CNS
[33] = system: SK-MEL-2 melanoma
[34] = system: SK-MEL-28 melanoma
[35] = system: SK-MEL-5 melanoma
[36] = system: SK-OV-3 ovarian
[37] = system: SN12C renal
[38] = system: SNB-75 CNS
[39] = system: SR leukemia
[40] = system: SW-620 colon
[41] = system: T-47D breast
[42] = system: TK-10 renal
[43] = system: U251 CNS
[44] = system: UACC-257 melanoma
[45] = system: UACC-62 melanoma
[46] = system: UO-31 renal

Compound `COc1ccc(-c2ccc(-c3ccc(C(=N)N)c(F)c3)s2)cc1` has a GI50 [1] of 209 nM, a TGI [1] of 448 nM and a GI50 [2] of 1570 nM. For the same compound, the TGI [2] was 3240 nM, the GI50 [3] was 1540 nM and the TGI [3] was 2990 nM. It also gave a GI50 [4] of 286 nM, a TGI [4] of 853 nM and a GI50 [5] of 184 nM. The TGI [5] was 359 nM, the GI50 [6] was 564 nM and the TGI [6] was 1760 nM. For the same compound, the GI50 [7] was 230 nM, the TGI [7] was 478 nM and the GI50 [8] was 211 nM. The TGI [8] was 528 nM, the GI50 [9] was 215 nM and the TGI [9] was 462 nM. The GI50 [10] was 1530 nM, the TGI [10] was 3070 nM and the GI50 [11] was 867 nM. The TGI [11] was 2810 nM, the GI50 [12] was 1900 nM and the TGI [12] was 4710 nM. For the same compound, the GI50 [13] was 250 nM, the TGI [13] was 707 nM and the GI50 [14] was 1840 nM. The TGI [14] was 4510 nM, the GI50 [15] was 216 nM and the TGI [15] was 573 nM. For the same compound, the GI50 [16] was 291 nM, the TGI [16] was 861 nM and the GI50 [17] was 651 nM. It also gave a TGI [17] of 1910 nM, a GI50 [18] of 2290 nM and a TGI [18] of 4700 nM. The GI50 [19] was 212 nM, the TGI [19] was 502 nM and the GI50 [20] was 215 nM. For the same compound, the TGI [20] was 515 nM, the GI50 [21] was 310 nM and the TGI [21] was 881 nM. For the same compound, the GI50 [22] was 495 nM, the TGI [22] was 1870 nM and the GI50 [23] was 1990 nM. For the same compound, the TGI [23] was 4640 nM, the GI50 [24] was 1430 nM and the TGI [24] was 3350 nM. The GI50 [25] was 261 nM, the TGI [25] was 690 nM and the GI50 [26] was 1090 nM. For the same compound, the TGI [26] was 3440 nM, the GI50 [27] was 296 nM and the TGI [27] was 868 nM. The GI50 [28] was 323 nM, the TGI [28] was 1120 nM and the GI50 [29] was 787 nM. The TGI [29] was 2290 nM, the GI50 [30] was 369 nM and the TGI [30] was 1800 nM. The GI50 [31] was 741 nM, the TGI [31] was 2120 nM and the GI50 [32] was 793 nM. It also gave a TGI [32] of 2630 nM, a GI50 [33] of 2010 nM and a TGI [33] of 4100 nM. It also gave a GI50 [34] of 1510 nM, a TGI [34] of 3190 nM and a GI50 [35] of 1230 nM. For the same compound, the TGI [35] was 2830 nM, the GI50 [36] was 1570 nM and the TGI [36] was 3160 nM. The GI50 [37] was 622 nM, the TGI [37] was 1520 nM and the GI50 [38] was 1620 nM. For the same compound, the TGI [38] was 3310 nM, the GI50 [39] was 269 nM and the TGI [39] was 787 nM. The GI50 [40] was 222 nM, the TGI [40] was 541 nM and the GI50 [41] was 185 nM. The TGI [41] was 413 nM, the GI50 [42] was 720 nM and the TGI [42] was 1910 nM. The GI50 [43] was 184 nM, the TGI [43] was 368 nM and the GI50 [44] was 1340 nM. It also gave a TGI [44] of 2940 nM, a GI50 [45] of 1800 nM and a TGI [45] of 3700 nM. The GI50 [46] was 1010 nM and the TGI [46] was 2720 nM.

Reference: PubChem BioAssay (NCI)
